# Patent publication US20240238300A1, “TREATMENT METHODS FOR SUBJECTS WITH CANCER HAVING AN ABERRATION IN EGFR AND/OR HER2” (TAIHO PHARMACEUTICAL CO., LTD., priority 2021, published 2024)
# Read-outs that look alike come from different tables or passages of the source.
# Experiments:
# [1] = test system: NCI-N87 human gastric carcinoma xenografts; experiment: antitumor effect in nude mice bearing NCI-N87 xenografts; format: in vivo; details: 12.5 mg/kg/day orally once daily 14 days, Day 15
# Method: The antitumor effect of Compound (1) was evaluated in nude mice bearing HER2-overexpressing NCI-N87 human gastric carcinoma xenografts. Compound (1) dosing suspensions using 0.5% w/v hydroxypropyl methylcellulose (HPMC) as vehicle were prepared at 4 dose levels (3.1, 6.3, 12.5, and 25.0 mg/kg/day) and administered orally once daily for 14 days. In addition, the antitumor effect of poziotinib, which is a pan-ErbB inhibitor and currently under clinical development for the treatment of cancer with epidermal growth factor receptor containing HER2 exon 20 insertion mutations, was also evaluated using this model. Poziotinib was administered orally once daily for 14 days at 2 dose levels (0.5 or 1.0 mg/kg/day). The control group received 0.5% w/v HPMC once daily for 14 days.
# [2] = test system: NCI-N87 tumor fragment #6, clone 3; experiment: refractory T-DM1 monoclonal cell line model, comparison to DS-8201a; format: in vivo, male mice; details: for antitumor effect (tumor volume): 21 days
# Method: The obtained cell line was implanted into BALB/cAJcl-mu/nu male mice (8.0×10^6 cells in 100 μL of PBS/mouse, subcutaneous) for the efficacy test.
# The tumor volumes (TV, mm) and body weights of the mice were recorded.
# human BCRP [3] = target: T1, human BCRP (Homo sapiens, UniProt Q9UNQ0); experiment: in vitro
# T1 sequence (Q9UNQ0 1-655): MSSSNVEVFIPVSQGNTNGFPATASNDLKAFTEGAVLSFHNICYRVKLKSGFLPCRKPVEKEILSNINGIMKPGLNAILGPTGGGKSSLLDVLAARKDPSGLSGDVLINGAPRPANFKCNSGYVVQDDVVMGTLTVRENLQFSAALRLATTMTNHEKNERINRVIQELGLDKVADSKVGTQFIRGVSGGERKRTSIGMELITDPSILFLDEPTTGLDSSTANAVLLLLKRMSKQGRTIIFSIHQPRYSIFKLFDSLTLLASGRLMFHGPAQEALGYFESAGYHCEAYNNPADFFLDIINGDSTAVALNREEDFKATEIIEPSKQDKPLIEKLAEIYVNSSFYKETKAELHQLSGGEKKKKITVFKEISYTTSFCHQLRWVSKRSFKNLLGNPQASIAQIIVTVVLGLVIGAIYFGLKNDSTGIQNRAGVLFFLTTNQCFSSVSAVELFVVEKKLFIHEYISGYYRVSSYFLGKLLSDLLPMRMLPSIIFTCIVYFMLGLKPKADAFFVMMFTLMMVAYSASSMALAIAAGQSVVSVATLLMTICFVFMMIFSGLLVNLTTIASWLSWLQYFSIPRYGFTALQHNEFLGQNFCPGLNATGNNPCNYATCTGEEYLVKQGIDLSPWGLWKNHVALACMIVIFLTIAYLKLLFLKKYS
# JAK3 = JAK3 (Homo sapiens, UniProt P52333); experiment: panel enzyme assay of 257 kinases; format: biochemical; details: read-out: % Inhibition by Compound (1) at 1000 nmol/L
# Method: (§1) To investigate further kinase selectivity of Compound (1), a panel enzyme assay of 257 kinases for Compound (1) was conducted.
# BLK = BLK (Homo sapiens, UniProt P51451); experiment: panel enzyme assay of 257 kinases; format: biochemical; details: read-out: % Inhibition by Compound (1) at 1000 nmol/L
# Method: as §1
# BTK = BTK (Homo sapiens, UniProt Q06187); experiment: panel enzyme assay of 257 kinases; format: biochemical; details: read-out: % Inhibition by Compound (1) at 1000 nmol/L
# Method: as §1
# EGFR = EGFR (Homo sapiens, UniProt P00533); experiment: panel enzyme assay of 257 kinases; format: biochemical; details: read-out: % Inhibition by Compound (1) at 1000 nmol/L
# Method: as §1
# TEC = TEC (Homo sapiens, UniProt P42680); experiment: panel enzyme assay of 257 kinases; format: biochemical; details: read-out: % Inhibition by Compound (1) at 1000 nmol/L
# Method: as §1
# FLT4 = FLT4 (Homo sapiens, UniProt P35916); experiment: panel enzyme assay of 257 kinases; format: biochemical; details: read-out: % Inhibition by Compound (1) at 1000 nmol/L
# Sequence of FLT4 (P35916 25-1363, species assumed): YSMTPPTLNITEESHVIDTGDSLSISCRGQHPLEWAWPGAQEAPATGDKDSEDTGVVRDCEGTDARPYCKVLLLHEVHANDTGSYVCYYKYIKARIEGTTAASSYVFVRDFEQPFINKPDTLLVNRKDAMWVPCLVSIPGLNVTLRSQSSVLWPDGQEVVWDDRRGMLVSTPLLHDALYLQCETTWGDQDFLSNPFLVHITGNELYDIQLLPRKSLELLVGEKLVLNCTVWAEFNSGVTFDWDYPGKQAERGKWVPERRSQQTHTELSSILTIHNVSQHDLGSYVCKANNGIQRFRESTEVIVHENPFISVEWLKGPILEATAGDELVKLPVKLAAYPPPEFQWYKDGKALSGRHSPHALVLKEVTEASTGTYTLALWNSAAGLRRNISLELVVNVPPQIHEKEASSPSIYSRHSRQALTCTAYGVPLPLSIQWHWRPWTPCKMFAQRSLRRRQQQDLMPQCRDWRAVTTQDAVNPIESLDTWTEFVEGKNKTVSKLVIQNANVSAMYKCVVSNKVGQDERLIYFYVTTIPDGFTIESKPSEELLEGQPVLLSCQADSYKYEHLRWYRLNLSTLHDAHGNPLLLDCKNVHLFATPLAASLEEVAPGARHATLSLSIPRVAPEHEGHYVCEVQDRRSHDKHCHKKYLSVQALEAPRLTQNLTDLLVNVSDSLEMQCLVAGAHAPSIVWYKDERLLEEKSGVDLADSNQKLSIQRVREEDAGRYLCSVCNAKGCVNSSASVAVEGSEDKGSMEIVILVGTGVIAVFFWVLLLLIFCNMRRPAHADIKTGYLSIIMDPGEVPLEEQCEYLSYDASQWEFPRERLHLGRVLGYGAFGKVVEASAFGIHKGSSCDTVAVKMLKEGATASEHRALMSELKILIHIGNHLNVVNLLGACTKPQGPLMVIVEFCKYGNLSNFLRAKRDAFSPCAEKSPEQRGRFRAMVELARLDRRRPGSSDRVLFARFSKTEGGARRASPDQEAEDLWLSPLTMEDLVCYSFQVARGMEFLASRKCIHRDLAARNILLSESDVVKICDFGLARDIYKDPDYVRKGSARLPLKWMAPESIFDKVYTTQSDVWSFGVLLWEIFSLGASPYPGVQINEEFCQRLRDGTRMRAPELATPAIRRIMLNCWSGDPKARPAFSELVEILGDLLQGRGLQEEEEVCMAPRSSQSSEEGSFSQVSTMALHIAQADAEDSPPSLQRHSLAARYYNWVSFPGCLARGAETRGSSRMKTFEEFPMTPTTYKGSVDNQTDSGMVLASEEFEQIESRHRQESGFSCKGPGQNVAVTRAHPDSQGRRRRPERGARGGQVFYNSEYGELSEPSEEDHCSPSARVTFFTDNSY
# Method: as §1
# KDR = KDR (Homo sapiens, UniProt P35968); experiment: panel enzyme assay of 257 kinases; format: biochemical; details: read-out: % Inhibition by Compound (1) at 1000 nmol/L
# Sequence of KDR (P35968 20-1356, species assumed): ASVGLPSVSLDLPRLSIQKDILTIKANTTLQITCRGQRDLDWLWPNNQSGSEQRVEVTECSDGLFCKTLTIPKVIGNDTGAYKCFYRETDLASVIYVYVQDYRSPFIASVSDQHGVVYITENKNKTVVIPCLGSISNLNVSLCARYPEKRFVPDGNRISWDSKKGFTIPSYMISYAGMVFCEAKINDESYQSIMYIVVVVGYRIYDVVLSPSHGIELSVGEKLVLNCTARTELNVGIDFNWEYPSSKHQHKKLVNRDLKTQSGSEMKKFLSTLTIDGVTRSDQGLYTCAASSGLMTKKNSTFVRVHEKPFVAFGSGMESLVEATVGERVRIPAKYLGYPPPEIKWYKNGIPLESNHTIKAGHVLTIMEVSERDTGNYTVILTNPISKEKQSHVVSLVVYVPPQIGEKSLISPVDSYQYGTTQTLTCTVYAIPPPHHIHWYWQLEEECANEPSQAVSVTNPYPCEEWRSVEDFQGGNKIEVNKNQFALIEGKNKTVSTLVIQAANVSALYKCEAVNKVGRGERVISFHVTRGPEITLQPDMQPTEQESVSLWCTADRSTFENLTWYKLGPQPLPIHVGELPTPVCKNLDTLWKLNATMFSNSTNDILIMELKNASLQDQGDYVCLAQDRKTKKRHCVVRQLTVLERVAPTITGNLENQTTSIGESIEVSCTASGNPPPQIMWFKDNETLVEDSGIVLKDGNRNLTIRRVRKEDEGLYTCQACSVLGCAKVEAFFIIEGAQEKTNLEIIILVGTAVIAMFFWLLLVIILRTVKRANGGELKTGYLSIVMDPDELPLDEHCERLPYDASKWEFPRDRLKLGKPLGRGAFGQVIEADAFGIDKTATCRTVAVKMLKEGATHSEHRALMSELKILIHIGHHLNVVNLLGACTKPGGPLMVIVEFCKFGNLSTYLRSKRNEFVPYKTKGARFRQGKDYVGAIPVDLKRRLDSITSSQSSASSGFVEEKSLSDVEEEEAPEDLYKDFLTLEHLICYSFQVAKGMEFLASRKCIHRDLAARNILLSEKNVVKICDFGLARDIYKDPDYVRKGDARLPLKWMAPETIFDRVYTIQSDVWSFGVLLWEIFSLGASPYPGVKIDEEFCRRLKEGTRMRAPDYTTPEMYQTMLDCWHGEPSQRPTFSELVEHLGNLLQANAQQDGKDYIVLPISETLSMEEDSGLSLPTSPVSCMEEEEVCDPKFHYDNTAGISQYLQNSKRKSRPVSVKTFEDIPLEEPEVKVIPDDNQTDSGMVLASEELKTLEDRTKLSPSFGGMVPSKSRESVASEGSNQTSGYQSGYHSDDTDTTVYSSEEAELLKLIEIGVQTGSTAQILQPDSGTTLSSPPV
# Method: as §1
# TXK = TXK (Homo sapiens, UniProt P42681); experiment: panel enzyme assay of 257 kinases; format: biochemical; details: read-out: % Inhibition by Compound (1) at 1000 nmol/L
# Method: as §1
# DDR1 = DDR1 (Homo sapiens, UniProt Q08345); experiment: panel enzyme assay of 257 kinases; format: biochemical; details: read-out: % Inhibition by Compound (1) at 1000 nmol/L
# Sequence of DDR1 (Q08345 19-913, species assumed): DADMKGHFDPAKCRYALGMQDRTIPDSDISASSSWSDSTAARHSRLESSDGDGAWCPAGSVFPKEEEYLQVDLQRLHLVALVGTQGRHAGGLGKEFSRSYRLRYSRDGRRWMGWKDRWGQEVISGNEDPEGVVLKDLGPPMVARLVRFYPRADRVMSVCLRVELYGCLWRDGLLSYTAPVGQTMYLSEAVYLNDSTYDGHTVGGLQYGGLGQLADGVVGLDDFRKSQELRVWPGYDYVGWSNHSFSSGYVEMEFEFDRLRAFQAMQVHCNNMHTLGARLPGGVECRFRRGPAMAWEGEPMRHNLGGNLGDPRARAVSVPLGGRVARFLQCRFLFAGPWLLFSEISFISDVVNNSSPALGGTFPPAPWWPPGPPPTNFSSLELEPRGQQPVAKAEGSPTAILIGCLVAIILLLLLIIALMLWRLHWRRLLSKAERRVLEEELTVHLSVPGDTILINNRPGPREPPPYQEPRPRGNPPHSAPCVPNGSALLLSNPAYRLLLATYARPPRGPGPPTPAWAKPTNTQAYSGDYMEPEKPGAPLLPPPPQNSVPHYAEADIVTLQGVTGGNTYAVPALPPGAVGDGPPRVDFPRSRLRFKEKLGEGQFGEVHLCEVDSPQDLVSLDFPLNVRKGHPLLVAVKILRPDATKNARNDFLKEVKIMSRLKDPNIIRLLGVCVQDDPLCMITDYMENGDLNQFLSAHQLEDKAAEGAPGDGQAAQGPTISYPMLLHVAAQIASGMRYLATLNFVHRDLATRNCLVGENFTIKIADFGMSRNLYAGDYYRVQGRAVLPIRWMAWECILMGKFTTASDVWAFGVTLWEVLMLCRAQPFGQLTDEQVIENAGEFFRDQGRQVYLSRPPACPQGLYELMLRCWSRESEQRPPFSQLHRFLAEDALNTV
# Method: as §1
# HER4 = HER4 (Homo sapiens, UniProt Q15303); experiment: panel enzyme assay of 257 kinases; format: biochemical; details: read-out: % Inhibition by Compound (1) at 1000 nmol/L
# Method: as §1
# ITK = ITK (Homo sapiens, UniProt Q08881); experiment: panel enzyme assay of 257 kinases; format: biochemical; details: read-out: % Inhibition by Compound (1) at 1000 nmol/L
# Sequence of ITK (Q08881 whole entry, species assumed): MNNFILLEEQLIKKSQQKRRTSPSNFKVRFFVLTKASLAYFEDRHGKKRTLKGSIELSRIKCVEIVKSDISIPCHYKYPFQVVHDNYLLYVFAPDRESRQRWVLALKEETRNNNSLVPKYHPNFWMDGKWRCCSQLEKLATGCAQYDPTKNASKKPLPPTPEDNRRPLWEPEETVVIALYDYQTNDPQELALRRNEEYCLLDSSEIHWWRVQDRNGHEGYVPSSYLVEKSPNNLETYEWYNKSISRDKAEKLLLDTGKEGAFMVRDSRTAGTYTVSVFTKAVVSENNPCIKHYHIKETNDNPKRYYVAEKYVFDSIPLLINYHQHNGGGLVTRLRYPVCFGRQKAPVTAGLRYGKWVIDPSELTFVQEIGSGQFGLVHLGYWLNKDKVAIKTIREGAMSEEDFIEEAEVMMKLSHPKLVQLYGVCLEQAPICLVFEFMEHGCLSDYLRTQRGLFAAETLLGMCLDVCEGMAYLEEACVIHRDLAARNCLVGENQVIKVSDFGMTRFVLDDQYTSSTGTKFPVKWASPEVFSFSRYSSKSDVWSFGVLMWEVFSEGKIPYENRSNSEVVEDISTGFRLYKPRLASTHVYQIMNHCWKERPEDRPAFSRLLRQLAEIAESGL
# Method: as §1
# BMX = BMX (Homo sapiens, UniProt P51813); experiment: panel enzyme assay of 257 kinases; format: biochemical; details: read-out: % Inhibition by Compound (1) at 1000 nmol/L
# Sequence of BMX (P51813 whole entry, species assumed): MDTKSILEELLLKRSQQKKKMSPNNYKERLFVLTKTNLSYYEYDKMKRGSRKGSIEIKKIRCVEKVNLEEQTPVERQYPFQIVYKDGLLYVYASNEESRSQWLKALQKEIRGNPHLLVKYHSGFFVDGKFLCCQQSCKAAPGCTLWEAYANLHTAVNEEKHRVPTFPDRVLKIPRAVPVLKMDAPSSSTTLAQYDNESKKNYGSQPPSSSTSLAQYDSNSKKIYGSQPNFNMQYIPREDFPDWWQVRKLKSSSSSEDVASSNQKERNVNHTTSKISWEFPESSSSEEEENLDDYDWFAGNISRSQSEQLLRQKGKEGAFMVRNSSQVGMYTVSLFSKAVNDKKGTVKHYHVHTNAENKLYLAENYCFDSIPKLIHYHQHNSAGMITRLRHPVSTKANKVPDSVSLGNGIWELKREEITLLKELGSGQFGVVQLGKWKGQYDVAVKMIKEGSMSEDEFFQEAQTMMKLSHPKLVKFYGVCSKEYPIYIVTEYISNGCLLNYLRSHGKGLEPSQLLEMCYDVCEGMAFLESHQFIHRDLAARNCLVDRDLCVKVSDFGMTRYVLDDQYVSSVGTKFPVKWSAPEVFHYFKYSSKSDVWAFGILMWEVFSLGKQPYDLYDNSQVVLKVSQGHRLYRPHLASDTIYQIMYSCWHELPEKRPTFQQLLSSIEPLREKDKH
# Method: as §1
# EPHA6 = EPHA6 (Homo sapiens, UniProt Q9UF33); experiment: panel enzyme assay of 257 kinases; format: biochemical; details: read-out: % Inhibition by Compound (1) at 1000 nmol/L
# Method: as §1
# HER2 = HER2 (Homo sapiens, UniProt P04626); experiment: panel enzyme assay of 257 kinases; format: biochemical; details: read-out: % Inhibition by Compound (1) at 1000 nmol/L
# Method: as §1
# [4] = test system: refractory T-DM1 NCI-N87 tumor fragment #6; experiment: refractory T-DM1 tumor fragment model, comparison to lapatinib and tucatinib; format: in vivo, male nude mice (BALB/cAJcl-nu/nu); details: for antitumor effect (tumor volume): 21 days
# Method: Cancer Sci. 2020 June; 111(6):2123-2131. The NCI-N87 tumor fragment #6 obtained from the above procedure was then passaged two times into male nude mice (BALB/cAJcl-nu/nu) subcutaneously before the efficacy test of Compound (1).
# The tumor volumes (TV, mnm^3) and body weights of the mice were recorded.
# human BCRP [5] = target: T1, human BCRP; details: not told
compound,measurement,setting,value
"C=CC(=O)N1C[C@H](n2c(C#CC3CC3)c(C(=O)N[C@H](C)c3ccccc3)c3c(N)ncnc32)C[C@@H]1C [Compound (1), 7-((3R,5S)-1-acryloyl-5-methylpyrrolidin-3-yl)-4-amino-6-(cyclopropylethynyl)-N—((R)-1-phenylethyl)-7H-pyrrolo[2,3-d]pyrimidine-5-carboxamide]",T/C ratio of the mean tumor volumes,[1],7.3%
same,antitumor effect (tumor volume),[2]; 12.5 mg/kg/day PO once per day,arresting tumor growth
same,antitumor effect (tumor volume),[2]; 20 mg/kg/day PO once per day,inducing tumor regression
same,body weight loss,[2]; 12.5 or 20 mg/kg,did not cause body weight loss
same,"activity at 3 h, 0.01 μmol/L",human BCRP [3],114%
same,"activity at 3 h, 0.1 μmol/L",human BCRP [3],95%
same,"activity at 3 h, 0.5 μmol/L",human BCRP [3],54%
same,"activity at 3 h, 1 μmol/L",human BCRP [3],24%
same,"activity at 3 h, 5 μmol/L",human BCRP [3],10%
same,"activity at 3 h, 10 μmol/L",human BCRP [3],3%
same,inhibition at 1 µM,JAK3,99.2%
same,inhibition at 1 µM,BLK,64.7%
same,inhibition at 1 µM,BTK,80%
same,inhibition at 1 µM,EGFR,98.3%
same,inhibition at 1 µM,TEC,81.7%
same,inhibition at 1 µM,FLT4,80.4%
same,inhibition at 1 µM,KDR,67.2%
same,inhibition at 1 µM,TXK,89.4%
same,inhibition at 1 µM,DDR1,86%
same,inhibition at 1 µM,HER4,98.4%
same,inhibition at 1 µM,ITK,56.4%
same,inhibition at 1 µM,BMX,98.9%
same,inhibition at 1 µM,EPHA6,72.9%
same,inhibition at 1 µM,HER2,100%
same,antitumor effect (tumor volume),[4]; 12.5 mg/kg/day PO once per day,arresting tumor growth
same,antitumor effect (tumor volume),[4]; 20 mg/kg/day PO once per day,inducing tumor regression
same,antitumor effect compared to lapatinib (50 mg/kg b.i.d.) or tucatinib (75 mg/kg b.i.d.),[4]; 12.5 and 20 mg/kg/day PO,superior antitumor effects
same,body weight loss,[4]; 12.5 or 20 mg/kg,did not cause body weight loss
same,net flux ratio of [^3H]prazosin,human BCRP [5]; 0.01 μmol/L,4.6±0.4
same,net flux ratio of [^3H]prazosin,human BCRP [5]; 0.1 μmol/L,4.0±0.3
same,net flux ratio of [^3H]prazosin,human BCRP [5]; 0.5 μmol/L,2.7±0.2
same,net flux ratio of [^3H]prazosin,human BCRP [5]; 1 μmol/L,1.8±0.2
same,net flux ratio of [^3H]prazosin,human BCRP [5]; 5 μmol/L,1.3±0.2
same,net flux ratio of [^3H]prazosin,human BCRP [5]; 10 μmol/L,1.1±0.1
